# Results: PubChem BioAssay AID1963839 (Molecular Pharmacology Branch, DTP, NCI, 2024)
# System: 817829-284-R-J1-PDC complex spheroid viability
# Experiment: Anticancer human tumor 817829-284-R-J1-PDC patient-derived colon adenocarcinoma cell line growth inhibition [POLQ]
# Conditions: for IC50: curve of first compound; for viability, T/C: stronger effect = lower value
# How it was run: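 PDC + HUVEC + MSC complex spheroids; POLQ inhibitors ± partner drugs; top conc. at/near clinical Cmax, else 10 microM (SN-38 1 microM), half-log dilutions; 37 degrees C, 5% CO2.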
# [1] = second compound 0.0316 µM, first compound 0.0316 µM
# [2] = second compound 0.0316 µM, first compound 0.1 µM
# [3] = second compound 0.0316 µM, first compound 0.316 µM
# [4] = second compound 0.0316 µM, first compound 1 µM
# [5] = second compound 0.0316 µM, first compound 3.16 µM
# [6] = second compound 0.0316 µM, first compound 10 µM
# [7] = second compound 0.1 µM, first compound 0.0316 µM
# [8] = second compound 0.1 µM, first compound 0.1 µM
# [9] = second compound 0.1 µM, first compound 0.316 µM
# [10] = second compound 0.1 µM, first compound 1 µM
# [11] = second compound 0.1 µM, first compound 3.16 µM
# [12] = second compound 0.1 µM, first compound 10 µM
# [13] = second compound 0.316 µM, first compound 0.0316 µM
# [14] = second compound 0.316 µM, first compound 0.1 µM
# [15] = second compound 0.316 µM, first compound 0.316 µM
# [16] = second compound 0.316 µM, first compound 1 µM
# [17] = second compound 0.316 µM, first compound 3.16 µM
# [18] = second compound 0.316 µM, first compound 10 µM
# [19] = second compound 1 µM, first compound 0.0316 µM
# [20] = second compound 1 µM, first compound 0.1 µM
# [21] = second compound 1 µM, first compound 0.316 µM
# [22] = second compound 1 µM, first compound 1 µM
# [23] = second compound 1 µM, first compound 3.16 µM
# [24] = second compound 1 µM, first compound 10 µM
# [25] = second compound 3.16 µM, first compound 0.0316 µM
# [26] = second compound 3.16 µM, first compound 0.1 µM
# [27] = second compound 3.16 µM, first compound 0.316 µM
# [28] = second compound 3.16 µM, first compound 1 µM
# [29] = second compound 3.16 µM, first compound 3.16 µM
# [30] = second compound 3.16 µM, first compound 10 µM
# [31] = second compound 10 µM, first compound 0.0316 µM
# [32] = second compound 10 µM, first compound 0.1 µM
# [33] = second compound 10 µM, first compound 0.316 µM
# [34] = second compound 10 µM, first compound 1 µM
# [35] = second compound 10 µM, first compound 3.16 µM
# [36] = second compound 10 µM, first compound 10 µM
# 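Further: spheroids exposed to compounds for 7 days.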
# 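Wherever viability, T/C is given: 100% = DMSO vehicle-treated spheroids.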
compound,measurement,setting,value
CC(C)n1c(=O)n(C)c2cnc3cc(F)c(-c4ccc(OCCCN5CCCCC5)nc4)cc3c21 + Nc1ccc(C#CCN(C(=O)Cc2ncc(C(F)(F)F)cc2C(F)(F)F)c2ccc(F)cc2)nn1,IC50,second compound 0.0316 µM,> 10000 nM
same,IC50,second compound 0.1 µM,7800 nM
same,IC50,second compound 0.316 µM,8100 nM
same,IC50,second compound 1 µM,6500 nM
same,IC50,second compound 3.16 µM,9720 nM
same,IC50,second compound 10 µM,7910 nM
same,"viability, T/C",[1],84.8%
same,"viability, T/C",[2],92.4%
same,"viability, T/C",[3],79.6%
same,"viability, T/C",[4],95.8%
same,"viability, T/C",[5],85.7%
same,"viability, T/C",[6],60.4%
same,"viability, T/C",[7],85.2%
same,"viability, T/C",[8],77.2%
same,"viability, T/C",[9],94.5%
same,"viability, T/C",[10],88.9%
same,"viability, T/C",[11],84.8%
same,"viability, T/C",[12],40.4%
same,"viability, T/C",[13],96.1%
same,"viability, T/C",[14],95%
same,"viability, T/C",[15],110%
same,"viability, T/C",[16],83.1%
same,"viability, T/C",[17],81.3%
same,"viability, T/C",[18],43.3%
same,"viability, T/C",[19],95%
same,"viability, T/C",[20],89.1%
same,"viability, T/C",[21],103%
same,"viability, T/C",[22],87.7%
same,"viability, T/C",[23],76%
same,"viability, T/C",[24],34.7%
same,"viability, T/C",[25],81.8%
same,"viability, T/C",[26],86.2%
same,"viability, T/C",[27],105%
same,"viability, T/C",[28],94.5%
same,"viability, T/C",[29],92.8%
same,"viability, T/C",[30],48.9%
same,"viability, T/C",[31],81.7%
same,"viability, T/C",[32],96%
same,"viability, T/C",[33],106%
same,"viability, T/C",[34],76.3%
same,"viability, T/C",[35],82.2%
same,"viability, T/C",[36],42%
CC1COCCN1c1cc(-c2ccnn2C)c2ccnc(-c3ccn[nH]3)c2n1 (stereo unspecified) + Nc1ccc(C#CCN(C(=O)Cc2ncc(C(F)(F)F)cc2C(F)(F)F)c2ccc(F)cc2)nn1,IC50,second compound 0.0316 µM,45.7 nM
same,IC50,second compound 0.1 µM,47.9 nM
same,IC50,second compound 0.316 µM,41.4 nM
same,IC50,second compound 1 µM,48.6 nM
same,IC50,second compound 3.16 µM,53.6 nM
same,IC50,second compound 10 µM,51.2 nM
same,"viability, T/C",[1],66.6%
same,"viability, T/C",[2],15.1%
same,"viability, T/C",[3],5.55%
same,"viability, T/C",[4],3.95%
same,"viability, T/C",[5],3.46%
same,"viability, T/C",[6],3.51%
same,"viability, T/C",[7],69.3%
same,"viability, T/C",[8],16.2%
same,"viability, T/C",[9],5.6%
same,"viability, T/C",[10],3.72%
same,"viability, T/C",[11],3.57%
same,"viability, T/C",[12],2.68%
same,"viability, T/C",[13],60.5%
same,"viability, T/C",[14],16.4%
same,"viability, T/C",[15],5.61%
same,"viability, T/C",[16],3.98%
same,"viability, T/C",[17],3.56%
same,"viability, T/C",[18],2.61%
same,"viability, T/C",[19],70.6%
same,"viability, T/C",[20],15.2%
same,"viability, T/C",[21],6.24%
same,"viability, T/C",[22],4.01%
same,"viability, T/C",[23],3.75%
same,"viability, T/C",[24],3.12%
same,"viability, T/C",[25],72.8%
same,"viability, T/C",[26],23.1%
same,"viability, T/C",[27],5.89%
same,"viability, T/C",[28],4.04%
same,"viability, T/C",[29],3%
same,"viability, T/C",[30],3.74%
same,"viability, T/C",[31],73.9%
same,"viability, T/C",[32],16.9%
same,"viability, T/C",[33],5.59%
same,"viability, T/C",[34],3.74%
same,"viability, T/C",[35],3.56%
same,"viability, T/C",[36],2.98%
CC1COCCN1c1cc(C2(S(C)(=N)=O)CC2)nc(-c2ccnc3[nH]ccc23)n1 (stereo unspecified) + Nc1ccc(C#CCN(C(=O)Cc2ncc(C(F)(F)F)cc2C(F)(F)F)c2ccc(F)cc2)nn1,IC50,second compound 0.0316 µM,313 nM
same,IC50,second compound 0.1 µM,437 nM
same,IC50,second compound 0.316 µM,409 nM
same,IC50,second compound 1 µM,487 nM
same,IC50,second compound 3.16 µM,471 nM
same,IC50,second compound 10 µM,306 nM
same,"viability, T/C",[1],83.3%
same,"viability, T/C",[2],74.2%
same,"viability, T/C",[3],48.2%
same,"viability, T/C",[4],25.8%
same,"viability, T/C",[5],8.98%
same,"viability, T/C",[6],4.09%
same,"viability, T/C",[7],83.5%
same,"viability, T/C",[8],82.1%
same,"viability, T/C",[9],60.7%
same,"viability, T/C",[10],21.9%
same,"viability, T/C",[11],8.16%
same,"viability, T/C",[12],4.21%
same,"viability, T/C",[13],99.9%
same,"viability, T/C",[14],86.6%
same,"viability, T/C",[15],57.8%
same,"viability, T/C",[16],24.6%
same,"viability, T/C",[17],7.24%
same,"viability, T/C",[18],5.14%
same,"viability, T/C",[19],86.9%
same,"viability, T/C",[20],87.2%
same,"viability, T/C",[21],67.6%
same,"viability, T/C",[22],20.4%
same,"viability, T/C",[23],7.25%
same,"viability, T/C",[24],5.6%
same,"viability, T/C",[25],95.7%
same,"viability, T/C",[26],83.7%
same,"viability, T/C",[27],66%
same,"viability, T/C",[28],22.3%
same,"viability, T/C",[29],6.64%
same,"viability, T/C",[30],4.14%
same,"viability, T/C",[31],86.6%
same,"viability, T/C",[32],76.3%
same,"viability, T/C",[33],48.1%
same,"viability, T/C",[34],23.1%
same,"viability, T/C",[35],5.64%
same,"viability, T/C",[36],5.25%
